According to patent US4576945A, “Hexaalkylmelamine-amino-oxy compounds” (priority 1984, dated 1986):
Where a name gives a salt, the structure may show the parent alone.

Key:
A-101D melanoma = test: Inhibition of colony formation by human tumor cell line A-101D (melanoma), long-term exposure; format: cell-based; conditions: Homo sapiens, A101D, 216 h, 9 days, read-out: Percent survival (number of colonies in test dishes to colonies in control dishes times 100)
Protocol: (§1) Cytotoxic activity of O-HMM against in vitro human tumor cells was measured as inhibition of colony formation and the results expressed as a ratio of the number of colonies in test dishes to number of control dishes, times 100 (Table 4).
(§2) Inhibition of colony formation by human tumor
(§3) ^a Percent survival as measured by the number of colonies in test

A-498 renal carcinoma = test: Inhibition of colony formation by human tumor cell line A-498 (renal carcinoma), long-term exposure; format: cell-based; conditions: Homo sapiens, A498, 216 h, 9 days, read-out: Percent survival (number of colonies in test dishes to colonies in control dishes times 100)
Protocol: as §1, §2, §3

A-549 lung carcinoma = test: Inhibition of colony formation by human tumor cell line A-549 (lung carcinoma), long-term exposure; format: cell-based; conditions: Homo sapiens, A549, 216 h, 9 days, read-out: Percent survival (number of colonies in test dishes to colonies in control dishes times 100)
Protocol: as §1, §2, §3

A-204 rhabdomysarcoma = test: Inhibition of colony formation by human tumor cell line A-204 (rhabdomysarcoma), long-term exposure; format: cell-based; conditions: Homo sapiens, A204, 216 h, 9 days, read-out: Percent survival (number of colonies in test dishes to colonies in control dishes times 100)
Protocol: as §1, §2, §3

ovarian cancer = conditions: clinical; cited from earlier work
human pulmonary tumors = conditions: cited from earlier work
[1] = test system: N.C.I. animal anti-tumor screening systems; conditions: in vivo; cited from earlier work
human renal tumors = conditions: cited from earlier work
[2] = test system: advanced ovarian adenocarcinoma; conditions: concurrent use with cyclophosphamide, methotrexate and 5-fluorouracil; cited from earlier work
human disease = conditions: in vivo; cited from earlier work
[3] = vs HMM; background statement; cited from earlier work
[4] = 150 ug/ml, solubility may be limiting
[5] = 175 ug/ml, solubility may be limiting
[6] = 225 ug/ml, solubility may be limiting

What does the source list for `CN(C)c1nc(N(C)C)nc(N(C)C)n1` [HMM.HCl, reference compound]?
viability at 20 µg/mL (A-101D melanoma; 20 ug/ml): 101 ± 4%; viability at 25 µg/mL (A-101D melanoma; 25 ug/ml): 98 ± 11%; viability at 50 µg/mL (A-101D melanoma; 50 ug/ml): 92 ± 13%; viability at 75 µg/mL (A-101D melanoma; 75 ug/ml): 73 ± 5%; viability at 100 µg/mL (A-101D melanoma; 100 ug/ml): 53 ± 11%; viability at 150 µg/mL (A-101D melanoma; [4]): 37 ± 8%; viability at 175 µg/mL (A-101D melanoma; [5]): 38 ± 9%; viability at 200 µg/mL (A-101D melanoma; 200 ug/ml): 33 ± 8%; viability at 225 µg/mL (A-101D melanoma; [6]): 29 ± 6%; viability at 20 µg/mL (A-498 renal carcinoma; 20 ug/ml): 97 ± 6%; viability at 25 µg/mL (A-498 renal carcinoma; 25 ug/ml): 90 ± 12%; viability at 50 µg/mL (A-498 renal carcinoma; 50 ug/ml): 75 ± 8%; viability at 75 µg/mL (A-498 renal carcinoma; 75 ug/ml): 61 ± 12%; viability at 100 µg/mL (A-498 renal carcinoma; 100 ug/ml): 50 ± 12%; viability at 150 µg/mL (A-498 renal carcinoma; [4]): 42 ± 18%; viability at 175 µg/mL (A-498 renal carcinoma; [5]): 43 ± 25%; viability at 200 µg/mL (A-498 renal carcinoma; 200 ug/ml): 42 ± 19%; viability at 225 µg/mL (A-498 renal carcinoma; [6]): 41 ± 8%; viability at 10 µg/mL (A-549 lung carcinoma; 10 ug/ml): 95 ± 5%; viability at 20 µg/mL (A-549 lung carcinoma; 20 ug/ml): 93 ± 4%; viability at 25 µg/mL (A-549 lung carcinoma; 25 ug/ml): 91 ± 12%; viability at 50 µg/mL (A-549 lung carcinoma; 50 ug/ml): 95 ± 8%; viability at 75 µg/mL (A-549 lung carcinoma; 75 ug/ml): 87 ± 11%; viability at 100 µg/mL (A-549 lung carcinoma; 100 ug/ml): 86 ± 9%; viability at 150 µg/mL (A-549 lung carcinoma; [4]): 74 ± 17%; viability at 175 µg/mL (A-549 lung carcinoma; [5]): 59 ± 23%; viability at 200 µg/mL (A-549 lung carcinoma; 200 ug/ml): 61 ± 19%; viability at 20 µg/mL (A-204 rhabdomysarcoma; 20 ug/ml): 104 ± 12%; viability at 25 µg/mL (A-204 rhabdomysarcoma; 25 ug/ml): 85 ± 8%; viability at 50 µg/mL (A-204 rhabdomysarcoma; 50 ug/ml): 78 ± 15%; viability at 75 µg/mL (A-204 rhabdomysarcoma; 75 ug/ml): 62 ± 24%; viability at 100 µg/mL (A-204 rhabdomysarcoma; 100 ug/ml): 55 ± 27%; viability at 150 µg/mL (A-204 rhabdomysarcoma; [4]): 35 ± 29%; viability at 175 µg/mL (A-204 rhabdomysarcoma; [5]): 38 ± 26%; viability at 200 µg/mL (A-204 rhabdomysarcoma; 200 ug/ml): 38 ± 21%; viability at 225 µg/mL (A-204 rhabdomysarcoma; [6]): 40 ± 28%

For `CN(C)c1nc(N(C)C)nc(N(C)C)n1` [HMM, hexamethylmelamine], which “activity against ovarian cancer” value (ovarian cancer) is on record?
The value was “significant activity against ovarian cancer”.

And the “activity against human pulmonary tumors in mice” value (human pulmonary tumors)?
The value was “active”.

What about the “activity in most N.C.I. animal anti-tumor screening systems” value [1] of the same molecule?
The value was “no demonstrated activity”.

What about the “activity against human renal tumors in mice” value (human renal tumors) of the same molecule?
Its value is “active”.

And the “effectiveness against advanced ovarian adenocarcinoma” value [2]?
Its value is “effective against advanced ovarian adenocarcinoma”.

And the “activity against human disease” value (human disease)?
Its value is “demonstrated activity against human disease”.

For `CNc1nc(N(C)C)nc(N(C)C)n1` [pentamethylmelamine], which “solubility compared with HMM” value [3] is on record?
The value was “more soluble”.
